# Data as given in US10899755B2, “Benzothiazole compounds and uses thereof” (Incyte Corporation, priority 2018, dated 2021).
# Target: HPK1 (Homo sapiens, UniProt Q92918)
# Assay: HPK1 Kinase Binding Assay
# Conditions: active HPK1 (SignalChem M23-11G), tracer 222, LanthaScreen Eu-Anti GST antibody, one hour incubation at 25° C.
# Method: A stock solution of 1 mM test compound was prepared in DMSO. The compound plate was prepared by 3-fold and 11-point serial dilutions. 0.1 μL of the compound in DMSO was transferred from the compound plate to the white 384 well polystyrene plates. The assay buffer contained 50 mM HEPES, pH 7.5, 0.01% Tween-20, 5 mM MgCl2, 0.01% BSA, and 5 mM DTT. 5 μL of 4 nM active HPK1 (SignalChem M23-11G) prepared in the buffer was added to the plate. The enzyme concentration given was based on the given stock concentration reported by the vender. […] After one hour incubation at 25° C., the plates were read on a PHERAstar FS plate reader (BMG Labtech). Ki values were determined.
# HPK1, sequence (Q92918 whole entry, looked up): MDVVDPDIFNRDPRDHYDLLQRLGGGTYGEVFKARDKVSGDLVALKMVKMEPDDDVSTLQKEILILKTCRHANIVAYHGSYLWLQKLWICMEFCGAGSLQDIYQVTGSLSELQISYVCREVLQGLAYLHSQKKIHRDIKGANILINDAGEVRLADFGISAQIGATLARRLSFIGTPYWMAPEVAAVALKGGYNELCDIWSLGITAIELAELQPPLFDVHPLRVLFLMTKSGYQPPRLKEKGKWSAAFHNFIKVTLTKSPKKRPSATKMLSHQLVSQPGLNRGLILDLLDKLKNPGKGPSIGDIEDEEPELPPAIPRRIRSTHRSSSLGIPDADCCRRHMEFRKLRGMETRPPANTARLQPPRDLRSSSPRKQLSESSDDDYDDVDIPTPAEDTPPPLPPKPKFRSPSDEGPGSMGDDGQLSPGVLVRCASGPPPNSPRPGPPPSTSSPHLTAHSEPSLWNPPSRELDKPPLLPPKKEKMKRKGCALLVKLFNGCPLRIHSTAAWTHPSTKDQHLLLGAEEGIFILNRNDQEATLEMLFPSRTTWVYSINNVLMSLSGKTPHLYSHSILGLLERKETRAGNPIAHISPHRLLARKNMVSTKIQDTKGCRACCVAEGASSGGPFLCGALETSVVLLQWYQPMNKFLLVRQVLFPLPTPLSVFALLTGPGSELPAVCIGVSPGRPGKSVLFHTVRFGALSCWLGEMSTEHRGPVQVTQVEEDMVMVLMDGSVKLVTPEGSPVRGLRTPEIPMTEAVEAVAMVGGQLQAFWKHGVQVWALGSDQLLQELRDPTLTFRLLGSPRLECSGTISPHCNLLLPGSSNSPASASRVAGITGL
row,SMILES,Ki
1,"COc1cccc(F)c1-c1nccc(C(=O)Nc2cc(C#N)c3sc(C)nc3c2N2CC[C@H](N)C2)n1 [Example 8, (S)—N-(4-(3-Aminopyrrolidin-1-yl)-7-cyano-2-methylbenzo[d]thiazol-5-yl)-2-(2-fluoro-6-methoxyphenyl)pyrimidine-4-carboxamide]",< 100 nM
2,"COc1cccc(F)c1-c1nccc(C(=O)Nc2ccc3sc(C)nc3c2N2C[C@H](NS(C)(=O)=O)C[C@H]2CO)n1 [Example 21, 2-(2-Fluoro-6-methoxyphenyl)-N-(4((2S,4R)-2-(hydroxymethyl)-4-(methylsulfonamido)pyrrolidin-1-yl)-2-methylbenzo[d]thiazol-5-yl)pyrimidine-4-carboxamide]",< 100 nM
3,"COc1cccc(F)c1-c1nccc(C(=O)Nc2cc(Cl)c3sc(C)nc3c2N2CC[C@H](N)C2)n1 [Example 5, (S)—N-(4-(3-Aminopyrrolidin-1-yl)-7-chloro-2-methylbenzo[d]thiazol-5-yl)-2-(2-fluoro-6-methoxyphenyl)pyrimidine-4-carboxamide]",< 100 nM
4,"COc1cccc(F)c1-c1nccc(C(=O)Nc2ccc3sc(CN(C)C)nc3c2N2C[C@H](N)C[C@H]2CO)n1 [Example 32, N-(4-((2S,4R)-4-amino-2-(hydroxymethyl)pyrrolidin-1-yl)-2-((dimethylamino)methyl)benzo[d]thiazol-5-yl)-2-(2-fluoro-6-methoxyphenyl)pyrimidine-4-carboxamide]",< 100 nM
5,"COc1cccc(F)c1-c1nccc(C(=O)Nc2ccc3sc(C)nc3c2N2CCC3CCNCC32)n1 (centres unmarked) [Example 28, 2-(2-Fluoro-6-methoxyphenyl)-N-(2-methyl-4-(octahydro-1H-pyrrolo[2,3-c]pyridin-1-yl)benzo[d]thiazol-5-yl)pyrimidine-4-carboxamide]",< 100 nM
6,"COc1cccc(F)c1-c1nccc(C(=O)Nc2ccc3sc(C)nc3c2N2CCC(c3ccccn3)C2)n1 (centres unmarked) [Example 29, 2-(2-Fluoro-6-methoxyphenyl)-N-(2-methyl-4-(3-(pyridin-2-yl)pyrrolidin-1-yl)benzo[d]thiazol-5-yl)pyrimidine-4-carboxamide]",< 100 nM
7,"COc1cccc(F)c1-c1nccc(C(=O)Nc2ccc3sc(C)nc3c2N2C[C@H](NC(C)=O)C[C@H]2CO)n1 [Example 20, N-(4-((2S,4R)-4-Acetamido-2-(hydroxymethyl)pyrrolidin-1-yl)-2-methylbenzo[d]thiazol-5-yl)-2-(2-fluoro-6-methoxyphenyl)pyrimidine-4-carboxamide]",< 100 nM
8,"COc1cccc(F)c1-c1nccc(C(=O)Nc2ccc3sc(C)nc3c2N2C[C@H]3C[C@@H]2CO3)n1 [Example 22, N-(4-((1R,4R)-2-Oxa-5-azabicyclo[2.2.1]heptan-5-yl)-2-methylbenzo[d]thiazol-5-yl)-2-(2-fluoro-6-methoxyphenyl)pyrimidine-4-carboxamide]",< 100 nM
9,"COc1cccc(F)c1-c1nccc(C(=O)Nc2ccc3sc(C)nc3c2N2C[C@@H](N)C[C@H]2CO)n1 [Example 23, N-(4-((2S,4S)-4-amino-2-(hydroxymethyl)pyrrolidin-1-yl)-2-methylbenzo[d]thiazol-5-yl)-2-(2-fluoro-6-methoxyphenyl)pyrimidine-4-carboxamide]",< 100 nM
10,"COc1cccc(F)c1-c1nccc(C(=O)Nc2ccc3sc(C)nc3c2N2C[C@H]3C[C@@H]2CN3C(=O)N2CCOCC2)n1 [Example 25, 2-(2-Fluoro-6-methoxyphenyl)-N-(2-methyl-4((1R,4R)-5-(morpholine-4-carbonyl)-2,5-diazabicyclo[2.2.1]heptan-2-yl)benzo[d]thiazol-5-yl)pyrimidine-4-carboxamide]",< 100 nM
11,"[2H]C([2H])([2H])Oc1ccc(C#N)c(F)c1-c1nccc(C(=O)Nc2ccc3sc(C)nc3c2N2C[C@H](N)C[C@H]2CO)n1 [Example 17, N-(4-((2S,4R)-4-Amino-2-(hydroxymethyl)pyrrolidin-1-yl)-2-methylbenzo[d]thiazol-5-yl)-2-(3-cyano-2-fluoro-6-(methoxy-d3)phenyl)pyrimidine-4-carboxamide]",< 100 nM
12,"Cc1nc2c(N3C[C@@H]4CC[C@H]3CN4)c(NC(=O)c3ccnc(-c4c(F)cccc4F)n3)ccc2s1 [Example 31, N-(4-((1S,4S)-2,5-Diazabicyclo[2.2.2]octan-2-yl)-2-methylbenzo[d]thiazol-5-yl)-2-(2,6-difluorophenyl)pyrimidine-4-carboxamide]",< 100 nM
13,"COc1cccc(F)c1-c1nccc(C(=O)Nc2ccc3sc(C(C)C)nc3c2N2C[C@@H](N)C[C@H]2CO)n1 [Example 13, N-(4-((2S,4S)-4-Amino-2-(hydroxymethyl)pyrrolidin-1-yl)-2-isopropylbenzo[d]thiazol-5-yl)-2-(2-fluoro-6-methoxyphenyl)pyrimidine-4-carboxamide]",< 100 nM
14,"COc1cccc(F)c1-c1nccc(C(=O)Nc2cc(C)c3sc(C)nc3c2N2CC[C@H](N)C2)n1 [Example 7, (S)—N-(4-(3-Aminopyrrolidin-1-yl)-2,7-dimethylbenzo[d]thiazol-5-yl)-2-(2-fluoro-6-methoxyphenyl)pyrimidine-4-carboxamide]",< 100 nM
15,"CCc1nc2c(N3C[C@@H](N)C[C@H]3CO)c(NC(=O)c3ccnc(-c4c(F)cccc4OC)n3)ccc2s1 [Example 12, N-(4-((2S,4S)-4-Amino-2-(hydroxymethyl)pyrrolidin-1-yl)-2-ethylbenzo[d]thiazol-5-yl)-2-(2-fluoro-6-methoxyphenyl)pyrimidine-4-carboxamide]",< 100 nM
16,"COc1cccc(F)c1-c1nccc(C(=O)Nc2ccc3sc(C)nc3c2N2C[C@H](NC3CCOCC3)C[C@H]2CO)n1 [Example 19, 2-(2-Fluoro-6-methoxyphenyl)-N-(4((2S,4R)-2-(hydroxymethyl)-4-(tetrahydro-2H-pyran-4-ylamino)pyrrolidin-1-yl)-2-methylbenzo[d]thiazol-5-yl)pyrimidine-4-carboxamide]",< 100 nM
17,"COc1ccc(F)c(F)c1-c1nccc(C(=O)Nc2ccc3sc(C)nc3c2N2C[C@H](N)C[C@H]2CO)n1 [Example 16, N-(4-((2S,4R)-4-Amino-2-(hydroxymethyl)pyrrolidin-1-yl)-2-methylbenzo[d]thiazol-5-yl)-2-(2,3-difluoro-6-methoxyphenyl)pyrimidine-4-carboxamide]",< 100 nM
18,"COCc1nc2c(N3CCC[C@H]3CN)c(NC(=O)c3ccnc(-c4c(F)cccc4OC)n3)ccc2s1 [Example 9, (S)—N-(4-(2-(Aminomethyl)pyrrolidin-1-yl)-2-(methoxymethyl)benzo[d]thiazol-5-yl)-2-(2-fluoro-6-methoxyphenyl)pyrimidine-4-carboxamide]",< 100 nM
19,"Cc1nc2c(N3CC[C@@H](N)C3)c(NC(=O)c3ccnc(-c4c(C)cccc4F)n3)ccc2s1 [Example 2, (R)—N-(4-(3-Aminopyrrolidin-1-yl)-2-methylbenzo[d]thiazol-5-yl)-2-(2-fluoro-6-methylphenyl)pyrimidine-4-carboxamide]",< 100 nM
20,"COc1cccc(F)c1-c1nccc(C(=O)Nc2ccc3sc(C)nc3c2N2C[C@H](NC(C)C)C[C@H]2CO)n1 [Example 18, 2-(2-Fluoro-6-methoxyphenyl)-N-(4((2S,4R)-2-(hydroxymethyl)-4-(isopropylamino)pyrrolidin-1-yl)-2-methylbenzo[d]thiazol-5-yl)pyrimidine-4-carboxamide]",< 100 nM
21,"COc1cccc(F)c1-c1nccc(C(=O)Nc2ccc3sc(C)nc3c2N2C[C@H](N)C[C@H]2CO)n1 [Example 11, N-(4-((2S,4R)-4-Amino-2-(hydroxymethyl)pyrrolidin-1-yl)-2-methylbenzo[d]thiazol-5-yl)-2-(2-fluoro-6-methoxyphenyl)pyrimidine-4-carboxamide]",< 100 nM
22,COc1cccc(F)c1-c1nccc(C(=O)Nc2ccc3sc(C)nc3c2N(C)[C@@H]2CCCNC2)n1 [Example 27],< 100 nM
23,"Cc1nc2c(N3CC[C@@H](N)C3)c(NC(=O)c3ccnc(-c4c(F)cccc4F)n3)ccc2s1 [Example 1, (R)—N-(4-(3-Aminopyrrolidin-1-yl)-2-methylbenzo[d]thiazol-5-yl)-2-(2,6-difluorophenyl)pyrimidine-4-carboxamide]",< 100 nM
24,"COCCc1nc2c(N3CCC[C@H]3CN)c(NC(=O)c3ccnc(-c4c(F)cccc4OC)n3)ccc2s1 [Example 10, (S)—N-(4-(2-(Aminomethyl)pyrrolidin-1-yl)-2-(2-methoxyethyl)benzo[d]thiazol-5-yl)-2-(2-fluoro-6-methoxyphenyl)pyrimidine-4-carboxamide]",< 100 nM
25,"CNCc1cc(C)c(-c2nccc(C(=O)Nc3ccc4sc(C)nc4c3N3CC[C@@H](N)C3)n2)c(F)c1 [Example 4, (R)—N-(4-(3-Aminopyrrolidin-1-yl)-2-methylbenzo[d]thiazol-5-yl)-2-(2-fluoro-6-methyl-4-((methylamino)methyl)phenyl)pyrimidine-4-carboxamide]",< 100 nM
26,"COc1cccc(F)c1-c1nccc(C(=O)Nc2ccc3sc(C)nc3c2N2CC(F)(F)C[C@H]2CO)n1 [Example 30, (S)—N-(4-(4,4-Difluoro-2-(hydroxymethyl)pyrrolidin-1-yl)-2-methylbenzo[d]thiazol-5-yl)-2-(2-fluoro-6-methoxyphenyl)pyrimidine-4-carboxamide]",< 100 nM
27,"COc1cccc(F)c1-c1nccc(C(=O)Nc2cc(Br)c3sc(C)nc3c2N2CC[C@H](N)C2)n1 [Example 6, (S)—N-(4-(3-Aminopyrrolidin-1-yl)-7-bromo-2-methylbenzo[d]thiazol-5-yl)-2-(2-fluoro-6-methoxyphenyl)pyrimidine-4-carboxamide]",< 100 nM
28,"COc1cccc(F)c1-c1nccc(C(=O)Nc2ccc3sc(C)nc3c2N2CCOC[C@@H]2CN)n1 [Example 26, (S)—N-(4-(3-(aminomethyl)morpholino)-2-methylbenzo[d]thiazol-5-yl)-2-(2-fluoro-6-methoxyphenyl)pyrimidine-4-carboxamide]",< 100 nM
29,"COc1ccc(-c2cnn(C)c2)c(F)c1-c1nccc(C(=O)Nc2ccc3sc(C)nc3c2N2C[C@H](N)C[C@H]2CO)n1 [Example 15, N-(4-((2S,4R)-4-Amino-2-(hydroxymethyl)pyrrolidin-1-yl)-2-methylbenzo[d]thiazol-5-yl)-2-(2-fluoro-6-methoxy-3-(1-methyl-1H-pyrazol-4-yl)phenyl)pyrimidine-4-carboxamide]",< 100 nM
